The text below walks through data of patent US12331032B2, “Quinone reductase 2 inhibitor compounds and uses thereof” (DUKE UNIVERSITY, priority 2018, dated 2025).

Series [1] addresses T1, quinone reductase 2 (QR2) (Homo sapiens, UniProt P16083).
T1 sequence (P16083 1-231): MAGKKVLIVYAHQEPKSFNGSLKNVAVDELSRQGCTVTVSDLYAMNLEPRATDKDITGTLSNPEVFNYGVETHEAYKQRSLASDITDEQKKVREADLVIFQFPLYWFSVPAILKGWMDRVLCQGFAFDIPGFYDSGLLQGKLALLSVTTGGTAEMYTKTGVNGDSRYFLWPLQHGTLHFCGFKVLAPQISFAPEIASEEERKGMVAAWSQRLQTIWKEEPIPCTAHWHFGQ
Description: QR2 inhibition, comparative IC50 data. In kind it is biochemical. Particulars: QR2 inhibitors.

Series [2] concerns permanent MCA occlusion model. Particulars: cited from earlier work.
For series [3] the following is noted: acidic lysomal pHs between 4 and 5.5; cited from earlier work.
Series [4] has as its system mouse model of closed head injury (TBI). Description: Rotorod vestibulomotor function after closed head injury (TBI). The settings on record: mice, i.p. at 4 hours following TBI, after 5 days. In kind it is in vivo. How it is done: The TBI model involves a single impact designed to avoid skull fracture. Injury is produced predominantly through acceleration/deceleration forces. For this model, therapeutic compounds were delivered i.p. at 4 hours following TBI, and then once weekly thereafter for the duration of the experiment, which terminated after 28 days following assessment of spatial learning and memory. […] Mice were tested on Rotorod for 5 consecutive days post TBI, then on day 7 and day 28.
A general note: In the rotarod test animals must keep their balance on a rotating rod.

Series [5] shares this test system. Put plainly: Morris Water maze spatial learning and memory after TBI. In kind it is in vivo. Particulars: days 28-31 post-injury. How it is done:
The TBI model involves a single impact designed to avoid skull fracture. Injury is produced predominantly through acceleration/deceleration forces. For this model, therapeutic compounds were delivered i.p. at 4 hours following TBI, and then once weekly thereafter for the duration of the experiment, which terminated after 28 days following assessment of spatial learning and memory. FIG. 5A-B summarize the results of spatial learning and memory assessments at 4 weeks following TBI, using the Morris Water maze to test the ability of mice to locate a submerged platform. The mice performed four trials/day for 4 consecutive days (inter-trial interval=30 min). The latency to locate the platform was recorded, and the 4 trials per day were averaged. Mice were tested on days 28-31 post-injury (n=11-12 mice per group). Standard control trials to confirm intact vision were also performed.

Regarding `CCN(CC)CCCC(C)Nc1ccnc2cc(Cl)ccc12` (stereo not shown) [chloroquine], the IC50 (as a rule, the concentration that inhibits the measured activity by half) in series [1] amounted to 70.9 µM. Besides, the “reduction of stroke volumes” value in series [2] is 60%. The fraction doubly protonated in series [3] is roughly 100%.
For the compound `COc1ccc2c(NCc3cccnc3)ccnc2c1` [QR2I-44, 7-methoxy-4-(pyridin-3-yl) methylaminoquinoline], in series [1], half-maximal inhibition (IC50) required 7.51 µM. For the same compound, in series [4], the “improvement in Rotorod latency over CQ” value is roughly 200% and the “improvement in Rotorod latency over vehicle” value is given as roughly 300%. Moreover, in series [5], the “improvement in learning and memory over vehicle (Morris Water maze)” value is on record as 30-35%.
